Where “and” joins values, the source holds several entries; their conditions need not be identical. Identical values can stand only once. Entries after “also recorded” stand apart in the source; their conditions may differ.
Assays:
[1] = test system: Macrophage RAW264.7; test: NO secretion of macrophage RAW264.7 (Embodiment 12); type: cell-based, Mouse; conditions: for Lysate NO secretion amount / Supernatant NO secretion amount: Folate 15.625 μM, LPS group 1 μg/mL, mean, n = 6
Description: • 1. Cell line: Macrophage RAW264.7. • 2. […] II. Experimental scheme
An absorbance value at 520 nm was expressed as mean±standard deviation. NO secretion rate=(OD sample well-OD blank well)/(OD normal well-OD blank well)×100%, and the NO secretion amount was calculated according to a standard curve.

[2] = test system: iNOS; test: Expression of iNOS in macrophages induced by LPS (Embodiment 8); type: cell-based, Mouse; conditions: 10 μmol/L, LPS 0.1 μg/mL, 24 h, ELISA, FIG. 6
Description: 1. Cell line: Macrophage RAW264.7.
2. Reagents: LPS (Sigma); iNOS detection kit (Stressgen); MTT (Biotopped).
The level of iNOS protein in macrophages was determined by ELISA using an anti-human iNOS polyclonal antibody (Stressgen). The number of macrophages was determined by using an automatic flow cytometer.

[3] = Removing peroxynitrite, SIN-1 as donor (Embodiment 9); type: biochemical; conditions: SIN-1 1 μmol/L, 1, 10, 100 μmol/L, 302 nm, FIG. 7
Description: 3-morpholino-sydnonimine (SIN-1) as a peroxynitrite donor was added to 15 test tubes at a concentration of 1 μmol/L. 5-methyltetrahydrofolate calcium was added to test tubes containing the SIN-1 solution to the final concentrations of 1 μmol/L, 10 μmol/L, and 100 μmol/L respectively; dehydroascorbic acid was added to test tubes containing the SIN-1 solution to the final concentrations of 1 μmol/L, 10 μmol/L, and 100 μmol/L respectively; glutathione was added to test tubes containing the SIN-1 solution to the final concentrations of 1 μmol/L, 10 μmol/L, and 100 μmol/L respectively; NMN was added to test tubes containing the SIN-1 solution to the final concentrations of 1 μmol/L, 10 μmol/L, and 100 μmol/L respectively; and tetrahydrobiopterin was added to test tubes containing the SIN-1 solution to the final concentrations of 1 μmol/L, 10 μmol/L, and 100 μmol/L respectively. The concentration of peroxynitrite was determined by spectrophotometry at a detection wavelength of 302 nm.

[4] = test system: Macrophage RAW264.7; conditions: 15.625, 62.5, 250 μmol/L; FIGS. 10-12
[5] = test system: influenza; type: in vivo, human
[6] = test system: Mycoplasma pneumoniae (ATCCFH15531); test: In vivo anti-mycoplasma pneumonia experiment (Embodiment 21); conditions: azithromycin 40 mg/kg; composition C 40 and 80 mg/kg; 10 days
[7] = randomized controlled trial / meta analyses from the literature; cited from earlier work
[8] = test system: Pseudomonas aeruginosa; test: Gram-negative bacteria in vivo (Embodiment 18); parameters: species or system BAL B/C male mice; conditions: penicillin 450 mg/kg by gavage 30 min and 24 h after infection
Description: […] BAL B/C male mice weighing 18-22 g were divided into 6 groups with 8 mice in each group. […] After a bacterial solution of Pseudomonas aeruginosa was cultured by streaking on an LB solid medium, a typical colony was picked and inoculated into an ordinary LB liquid medium. After overnight shaking culture at 37° C. for about 12 h, the culture was centrifuged at 4000 r/min for 3 min, the supernatant was discarded, and the bacteria were resuspended in normal saline for later use. The BAL B/C male mice in each experimental group and three control groups were intraperitoneally injected with a fatal dose of Pseudomonas aeruginosa solution at a dose of 500 μL/mouse. 30 min after the BAL B/C male mice in the experimental groups were infected with the bacteria, the medium-dose composition group and the high-dose composition group were administered with drugs by gavage, the penicillin group and the meropenem group were also administered with drugs by gavage, and the normal group was administered with purified water by gavage. 24 h after administration, the BAL B/C male mice in each experimental group and control group were administered for the second time, and the drug type and dosage were the same as the administration for the first time. The BAL B/C male mice were observed every 24 h after administration, and their survival was recorded. All animals were sacrificed on the day 15.

[9] = listed as 5-methyltetrahydrofolic acid
[10] = Folate capsules 400 mg/capsule, per patient, row Mean = mean

## 6S-5-methyltetrahydrofolate calcium
[1]; 1 μg/mL LPS induction
  Lysate NO secretion amount: 1.725 µM
  Supernatant NO secretion amount: 36.814 µM
[1]; 15.625 μmol/L, macrophages induced by LPS, listed as 5-methyltetrahydrofolic acid
  effect on secretion/expression of NO in macrophages: did not inhibit; also recorded: hardly affects
[1]; No induction
  Lysate NO secretion amount: 3.863 µM
  Supernatant NO secretion amount: 1.714 µM
[1]; low concentration, no LPS
  effect on secretion of NO when no LPS stimulation is provided: promote the secretion of NO
[2]; [9]
  effect on expression of iNOS in macrophages induced by LPS: did not affect; also recorded: almost no effect
[3]; [9]
  peroxynitrite scavenging: excellent peroxynitrite scavenging effects; also recorded: higher ability to scavenge peroxynitrite
[4]
  effect on expression of macrophages and inflammatory factors induced by LPS: no significant effect
[5]; [10]
  Basic rehabilitation (symptoms other than tonsillitis and sore throat disappeared): 33 hours (2×) and 35 hours and 13 hours and 12 hours (2×) and 17 hours (2×) and 32 hours (3×) and 8 hours and 43 hours and 18 hours and 34 hours and 15 hours and 11 hours and 56 hours and 24 hours and 10 hours and 46 hours and 58 hours and 53 hours and 14 hours
  Complete rehabilitation (all symptoms disappeared): 33 hours (2×) and 35 hours and 13 hours (3×) and 12 hours and 17 hours (2×) and 32 hours (2×) and 8 hours and 43 hours and 36 hours (2×) and 48 hours and 56 hours and 46 hours (3×) and 44 hours and 58 hours (2×) and 14 hours
  disappearance time of symptoms: Cough: 33 hours (2×) and 17 hours and 29 hours and 46 hours (2×) and 44 hours and 13 hours and 58 hours
  disappearance time of symptoms: Dizziness and fullness in head: 48 h and 9 h
  disappearance time of symptoms: Dry and itchy throat: 15 h
  disappearance time of symptoms: Fatigue: 35 hours and 8 hours (3×) and 12 hours (3×) and 15 hours and 10 hours (4×) and 33 hours
  disappearance time of symptoms: Headache: 13 hours and 12 hours (4×) and 32 hours (2×) and 8 hours (3×) and 9 hours and 10 hours (2×) and 14 hours
  disappearance time of symptoms: Inappetence: 13 h
  disappearance time of symptoms: Intolerance of cold and cold limbs: 10 h
  disappearance time of symptoms: Low fever: 10 h
  disappearance time of symptoms: Muscular soreness: 16 hours and 13 hours and 32 hours and 9 hours and 15 hours and 10 hours (2×) and 14 hours
  disappearance time of symptoms: Nasal stuffiness: 9 hours and 17 hours and 32 hours (2×) and 8 hours and 43 hours and 12 hours (3×) and 20 hours and 15 hours (2×) and 56 hours and 33 hours and 24 hours and 10 hours and 41 hours
  disappearance time of symptoms: Running nose: 11 hours (2×) and 13 hours and 32 hours and 8 hours and 9 hours and 20 hours and 15 hours and 12 hours (3×) and 33 hours (2×) and 46 hours and 53 hours and 17 hours and 14 hours
  disappearance time of symptoms: Sneezing: 32 hours (2×) and 9 hours (2×) and 18 hours and 34 hours and 15 hours and 12 hours (3×) and 8 hours and 33 hours and 10 hours and 17 hours
  disappearance time of symptoms: Sore throat: 33 hours (2×) and 12 hours (2×) and 32 hours (3×) and 29 hours and 36 hours (2×) and 46 hours and 10 hours and 54 hours and 58 hours and 14 hours
[5]; data in both Table 1 and Table 2
  time until the patients' influenza almost all healed: ≤ 2 days

## NC(=O)c1ccc[n+]([C@@H]2O[C@H](COP(=O)([O-])O)[C@@H](O)[C@H]2O)c1 [NMN, nicotinamide mononucleotide]
[2]
  effect on expression of iNOS in macrophages induced by LPS: did not affect; also recorded: almost no effect
[3]
  peroxynitrite scavenging: excellent peroxynitrite scavenging effects; also recorded: higher ability to scavenge peroxynitrite

## CC[C@H]1OC(=O)[C@H](C)[C@@H](O[C@H]2C[C@@](C)(OC)[C@@H](O)[C@H](C)O2)[C@H](C)[C@@H](O[C@@H]2O[C@H](C)C[C@H](N(C)C)[C@H]2O)[C@](C)(O)C[C@@H](C)CN(C)[C@H](C)[C@@H](O)[C@]1(C)O [azithromycin]
[6]
  histopathological examination of the lung tissue: Mild interstitial pneumonia

## O=C1O[C@H]([C@@H](O)CO)C(=O)C1=O [dehydroascorbic acid]
[2]
  effect on expression of iNOS in macrophages induced by LPS: almost no effect
[3]
  peroxynitrite scavenging: excellent peroxynitrite scavenging effects; also recorded: higher ability to scavenge peroxynitrite

## N[C@@H](CCC(=O)N[C@@H](CS)C(=O)NCC(=O)O)C(=O)O [glutathione, reference compound]
[2]
  effect on expression of iNOS in macrophages induced by LPS: did not affect; also recorded: almost no effect

## C[C@]12CCC(=O)C=C1CC[C@@H]1[C@@H]2[C@@H](O)C[C@@]2(C)[C@H]1CC[C@]2(O)C(=O)CO [hydrocortisone]
[7]
  mortality of patients with sepsis: could not reduce

## O=C1O[C@H]([C@@H](O)CO)C(O)=C1O [vitamin C]
[7]
  mortality of patients with sepsis: cannot improve

## lipopolysaccharide [LPS, reference compound]
[1]; 1 μg/mL LPS induction
  Lysate NO secretion amount: 1.6 µM
  Supernatant NO secretion amount: 37.343 µM
[1]; No induction
  Lysate NO secretion amount: 1.95 µM
  Supernatant NO secretion amount: 42.714 µM

## penicillin
[8]
  outcome of mice infected with the fatal dose of Pseudomonas aeruginosa: all the mice in the penicillin group died
